target: human recombinant H-PGDS (Homo sapiens, UniProt O60760); experiment: Fluorescence intensity h-PGDS TBA enzyme assay; format: biochemical; settings: Examples up to 622 (and 3a, 3b)
Sequence (O60760 whole entry): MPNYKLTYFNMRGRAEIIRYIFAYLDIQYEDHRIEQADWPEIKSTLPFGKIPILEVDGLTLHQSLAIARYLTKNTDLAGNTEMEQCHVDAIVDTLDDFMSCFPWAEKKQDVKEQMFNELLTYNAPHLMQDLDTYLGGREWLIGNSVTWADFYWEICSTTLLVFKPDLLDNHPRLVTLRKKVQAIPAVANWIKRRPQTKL

Question: With `O=C(NC1CCN(Cc2ccccn2)CC1)c1ccc(-c2ccccc2)nc1` [Example 5, 6-Phenyl-N-[1-(pyridin-2-ylmethyl)piperidin-4-yl]nicotinamide] as the compound, how does the IC50 read?
Answer: Its IC50 is 0.665 nM.

Question: Which IC50 does the source give for `CNS(=O)(=O)c1ccc(CN2CCC(NC(=O)c3ccc(-c4cccc(F)c4)nc3)CC2)cc1` [Example 282, 6-(3-Fluorophenyl)-N-(1-{4-[(methylamino)sulfonyl]benzyl}piperidin-4-yl)nicotinamide] here?
Answer: Its IC50 is 0.629 nM.

Question: How did the IC50 turn out when `Cc1ccc(-n2cccn2)c(CN2CCC(NC(=O)c3ccc(-c4cccc(F)c4)nc3)CC2)c1` [Example 438, 6-(3-Fluorophenyl)-N-{1-[5-methyl-2-(1H-pyrazol-1-yl)benzyl]piperidin-4-yl}nicotinamide] was run?
Answer: Its IC50 is 0.417 nM.

Question: `O=C(NC1CCN(Cc2ccccc2)CC1)c1ccc(-c2ccc(F)cc2)nc1` [Example 13, N-(1-Benzylpiperidin-4-yl)-6-(4-fluorophenyl)nicotinamide] was tested. Which IC50 did it give?
Answer: Its IC50 is 58 nM.

Question: With `CS(=O)(=O)Nc1ccc(CN2CCC(NC(=O)c3ccc(-c4cccc(F)c4)nc3)CC2)cc1` [Example 280, 6-(3-Fluorophenyl)-N-(1-{4-[(methylsulfonyl)amino]benzyl}piperidin-4-yl)nicotinamide] as the compound, how does the IC50 read?
Answer: The IC50 was 0.851 nM.

Question: For `O=C(NC1CN(c2cnc3ccccc3n2)C1)c1ccc(-c2cccc(F)c2)nc1` [Example 605, 6-(3-Fluorophenyl)-N-(1-quinoxalin-2-ylazetidin-3-yl)nicotinamide], which IC50 is on record?
Answer: Its IC50 is 2.9 nM.

Question: With `COC(=O)c1cc(C)nc(N2CCC(NC(=O)c3ccc(-c4cccc(F)c4)nc3)CC2)n1` [Example 150, Methyl 2-[4-({[6-(3-fluorophenyl)pyridin-3-yl]carbonyl}amino)piperidin-1-yl]-6-methylpyrimidine-4-carboxylate] as the compound, how does the IC50 read?
Answer: The IC50 was 1.8 nM.

Question: How did the IC50 turn out when `O=C(NC1CCN(Cc2cccc(CF)n2)CC1)c1ccc(-c2cccc(F)c2)nc1` [Example 463, N-(1-{[6-(Fluoromethyl)pyridin-2-yl]methyl}piperidin-4-yl)-6-(3-fluorophenyl)nicotinamide] was run?
Answer: The IC50 was 0.385 nM.

Question: `O=C(NC1CCN(Cc2ccc(=O)[nH]c2)CC1)c1ccc(-c2cccc(F)c2)nc1` [Example 378, 6-(3-Fluorophenyl)-N-{1-[(6-oxo-16-dihydropyridin-3-yl)methyl]piperidin-4-yl}nicotinamide] was tested. Which IC50 did it give?
Answer: The IC50 was 1.41 nM.

Question: With `CC(C)Cc1cc(CN2CCC(NC(=O)c3ccc(-c4cccc(F)c4)nc3)CC2)n[nH]1` [Example 429, 6-(3-Fluorophenyl)-N-{1-[(5-isobutyl-1H-pyrazol-3-yl)methyl]piperidin-4-yl}nicotinamide] as the compound, how does the IC50 read?
Answer: The IC50 was 1.12 nM.

Question: How did the IC50 turn out when `CC(C)(O)c1ccc(CN2CCC(NC(=O)c3ccc(-c4cccc(F)c4)nc3)CC2)cn1` [Example 472, 6-(3-Fluorophenyl)-N-(1-{[6-(1-hydroxy-1-methylethyl)pyridin-3-yl]methyl}piperidin-4-yl)nicotinamide] was run?
Answer: Its IC50 is 0.491 nM.

Question: For `COc1ccccc1C1(CN2CCC(NC(=O)c3ccc(-c4cccc(F)c4)nc3)CC2)CCOCC1` [Example 285, 6-(3-Fluorophenyl)-N-(1-{[4-(2-methoxyphenyl)tetrahydro-2H-pyran-4-yl]methyl}piperidin-4-yl)nicotinamide], which IC50 is on record?
Answer: Its IC50 is 1.53 nM.

Question: With `O=C(NC1CCN(Cc2nc3ccccc3n2CCF)CC1)c1ccc(-c2cccc(F)c2)nc1` [Example 423] as the compound, how does the IC50 read?
Answer: The IC50 was 0.931 nM.

Question: For `Cc1ccc(C#N)c(N2C[C@H](NC(=O)c3ccc(-c4cccc(F)c4)nc3)[C@@H](O)C2)n1` (relative stereo) [Example 617], which IC50 is on record?
Answer: Its IC50 is 4.1 nM.

Question: With `O=C(NC1CCN(Cc2ccc(-c3ccccn3)cc2)CC1)c1ccc(-c2cccc(F)c2)nc1` [Example 201, 6-(3-Fluorophenyl)-N-[1-(4-pyridin-2-ylbenzyl)piperidin-4-yl]nicotinamide] as the compound, how does the IC50 read?
Answer: The IC50 was 1.93 nM.

Question: With `O=C(NC1CCN(Cc2nc3cccc4c3n2CCC4)CC1)c1ccc(-c2cccc(F)c2)nc1` [Example 448, N-[1-(5,6-Dihydro-4H-imidazo[4,51-ij]quinolin-2-ylmethyl)piperidin-4-yl]-6-(3-fluorophenyl)nicotinamide] as the compound, how does the IC50 read?
Answer: Its IC50 is 2.45 nM.

Question: `C#CCN(C)C(=O)c1ccc(N2CCC(NC(=O)c3ccc(-c4cccc(F)c4)nc3)CC2)nc1` [Example 565, 6-[4-({[6-(3-Fluorophenyl)pyridin-3-yl]carbonyl}amino)piperidin-1-yl]-N-methyl-N-prop-2-yn-1-ylnicotinamide] was tested. Which IC50 did it give?
Answer: The IC50 was 1.05 nM.

Question: Which IC50 does the source give for `O=C(NC1CCN(Cc2cnc3ccccc3c2)CC1)c1ccc(-c2cccc(F)c2)nc1` [Example 246, 6-(3-Fluorophenyl)-N-[1-(quinolin-3-ylmethyl)piperidin-4-yl]nicotinamide] here?
Answer: The IC50 was 1.97 nM.

Question: For `O=C(NC1CCN(CCCc2ccccc2)CC1)c1ccc(-c2cccc(F)c2)nc1` [Example 301, 6-(3-Fluorophenyl)-N-[1-(3-phenylpropyl)piperidin-4-yl]nicotinamide], which IC50 is on record?
Answer: The IC50 was 1.16 nM.

Question: How did the IC50 turn out when `CC(C)(C)OC(=O)CCCN1CCC(NC(=O)c2ccc(-c3cccc(F)c3)nc2)CC1` [Example 279, tert-Butyl 4-[4-({[6-(3-fluorophenyl)pyridin-3-yl]carbonyl}amino)piperidin-1-yl]butanoate] was run?
Answer: The IC50 was 4.17 nM.

Question: How did the IC50 turn out when `N#Cc1ccc(Cn2nnnc2N2CCC(NC(=O)c3ccc(-c4cccc(F)c4)nc3)CC2)cc1` [Example 102, N-{1-[1-(4-Cyanobenzyl)-1H-tetrazol-5-yl]piperidin-4-yl}-6-(3-fluorophenyl)nicotinamide] was run?
Answer: The IC50 was 0.943 nM.

Question: `O=C(NC1CCN(c2ncnc3c2ncn3C2CCCCO2)CC1)c1ccc(-c2cccc(F)c2)nc1` (stereo not drawn) [Example 147, 6-(3-Fluorophenyl)-N-{1-[9-(tetrahydro-2H-pyran-2-yl)-9H-purin-6-yl]piperidin-4-yl}nicotinamide] was tested. Which IC50 did it give?
Answer: Its IC50 is 0.737 nM.

Question: How did the IC50 turn out when `COCc1cc(N2CCC(NC(=O)c3ccc(-c4cccc(F)c4)nc3)CC2)nc(-c2ccccc2)n1` [Example 144, 6-(3-Fluorophenyl)-N-{1-[6-(methoxymethyl)-2-phenylpyrimidin-4-yl]piperidin-4-yl}nicotinamide] was run?
Answer: Its IC50 is 9.56 nM.

Question: Which IC50 does the source give for `O=C(NC1CCN(Cc2cc(F)c(F)cc2F)CC1)c1ccc(-c2cccc(F)c2)nc1` [Example 218, 6-(3-Fluorophenyl)-N-[1-(245-trifluorobenzyl)piperidin-4-yl]nicotinamide] here?
Answer: The IC50 was 0.448 nM.

Question: How did the IC50 turn out when `Cc1nn(C)c(N2CCCOCC2)c1CN1CCC(NC(=O)c2ccc(-c3cccc(F)c3)nc2)CC1` [Example 479, N-(1-{[1,3-Dimethyl-5-(1,4-oxazepan-4-yl)-1H-pyrazol-4-yl]methyl}piperidin-4-yl)-6-(3-fluorophenyl)nicotinamide] was run?
Answer: The IC50 was 0.421 nM.

Question: `CC(C)(C)OC(=O)NC1CCC(CN2CCC(NC(=O)c3ccc(-c4cccc(F)c4)nc3)CC2)CC1` (stereo not drawn) [Example 416, tert-Butyl (4-{[4-({[6-(3-fluorophenyl)pyridin-3-yl]carbonyl}amino)piperidin-1-yl]methyl}cyclohexyl)carbamate] was tested. Which IC50 did it give?
Answer: Its IC50 is 1.68 nM.

Question: How did the IC50 turn out when `Cc1ncc2c(n1)CCC(CN1CCC(NC(=O)c3ccc(-c4cccc(F)c4)nc3)CC1)C2` (stereo not drawn) [Example 401, 6-(3-Fluorophenyl)-N-{1-[(2-methyl-5,6,7,8-tetrahydroquinazolin-6-yl)methyl]piperidin-4-yl}nicotinamide] was run?
Answer: Its IC50 is 0.574 nM.

Question: How did the IC50 turn out when `O=C(NC1CCN(Cc2cccc3c2OCCO3)CC1)c1ccc(-c2cccc(F)c2)nc1` [Example 418, N-[1-(2,3-Dihydro-1,4-benzodioxin-5-ylmethyl)piperidin-4-yl]-6-(3-fluorophenyl)nicotinamide] was run?
Answer: The IC50 was 0.427 nM.

Question: How did the IC50 turn out when `COCc1cc(CN2CCC(NC(=O)c3ccc(-c4cccc(F)c4)nc3)CC2)ccc1OC` [Example 327, 6-(3-Fluorophenyl)-N-{1-[4-methoxy-3-(methoxymethyl)benzyl]piperidin-4-yl}nicotinamide] was run?
Answer: Its IC50 is 1.55 nM.

Question: `O=C(NC1CCN(c2ncnc3cc(F)ccc23)CC1)c1ccc(-c2cccc(F)c2)nc1` [Example 117, 6-(3-Fluorophenyl)-N-[1-(7-fluoroquinazolin-4-yl)piperidin-4-yl]nicotinamide] was tested. Which IC50 did it give?
Answer: Its IC50 is 0.429 nM.

Question: Which IC50 does the source give for `O=C(NC1CCN(Cc2coc(-c3ccccc3)n2)CC1)c1ccc(-c2cccc(F)c2)nc1` [Example 426, 6-(3-Fluorophenyl)-N-{1-[(2-phenyl-1,3-oxazol-4-yl)methyl]piperidin-4-yl}nicotinamide] here?
Answer: Its IC50 is 5.53 nM.

Question: Which IC50 does the source give for `COc1ccc2[nH]cc(CN3CCC(NC(=O)c4ccc(-c5cccc(F)c5)nc4)CC3)c2c1` [Example 226, 6-(3-Fluorophenyl)-N-{1-[(5-methoxy-1H-indol-3-yl)methyl]piperidin-4-yl}nicotinamide] here?
Answer: Its IC50 is 1.42 nM.

Question: How did the IC50 turn out when `CN1CCc2nc(N3CCC(NC(=O)c4ccc(-c5cccc(F)c5)nc4)C3)ncc2C1` (stereo not drawn) [Example 597, 6-(3-Fluorophenyl)-N-[1-(6-methyl-5,6,7,8-tetrahydropyrido[4.3-d]pyrimidin-2-yl)pyrrolidin-3-yl]nicotinamide] was run?
Answer: The IC50 was 0.85 nM.

Question: How did the IC50 turn out when `O=C(NC1CCN(Cc2ccccn2)CC1)c1ccc(-c2ccccc2F)nc1` [Example 587, 6-(2-Fluorophenyl)-N-[1-(pyridin-2-ylmethyl)piperidin-4-yl]nicotinamide] was run?
Answer: Its IC50 is 1.19 nM.

Question: For `O=C(NC1CCN(Cc2ccc3occc3c2)CC1)c1ccc(-c2cccc(F)c2)nc1` [Example 520, N-[1-(1-Benzofuran-5-ylmethyl)piperidin-4-yl]-6-(3-fluorophenyl)nicotinamide], which IC50 is on record?
Answer: Its IC50 is 1.93 nM.

Question: Which IC50 does the source give for `O=C(NC1CCN(c2ccc(C(=O)N3CCC3)cn2)CC1)c1ccc(-c2cccc(F)c2)nc1` [Example 564, N-{1-[5-(Azetidin-1-ylcarbonyl)pyridin-2-yl]piperidin-4-yl}-6-(3-fluorophenyl)nicotinamide] here?
Answer: The IC50 was 1.09 nM.

Question: Which IC50 does the source give for `Cc1c(CN2CCC(NC(=O)c3ccc(-c4cccc(F)c4)nc3)CC2)c(=O)n(C)c(=O)n1C` [Example 270, 6-(3-Fluorophenyl)-N-{1-[(1,3,6-trimethyl-2,4-dioxo-1,2,3,4-tetrahydropyrimidin-5-yl)methyl]piperidin-4-yl}nicotinamide] here?
Answer: Its IC50 is 0.507 nM.

Question: Which IC50 does the source give for `Cc1c(CN2CCC(NC(=O)c3ccc(-c4cccc(F)c4)nc3)CC2)c(=O)n(-c2ccccc2)n1C` [Example 232, N-{1-[(1,5-Dimethyl-3-oxo-2-phenyl-2,3-dihydro-1H-pyrazol-4-yl)methyl]piperidin-4-yl}-6-(3-fluorophenyl)nicotinamide] here?
Answer: The IC50 was 2.71 nM.

Question: How did the IC50 turn out when `CC(c1cnn(-c2ccccc2)c1)N1CCC(NC(=O)c2ccc(-c3cccc(F)c3)nc2)CC1` (stereo not drawn) [Example 540, 6-(3-Fluorophenyl)-N-{1-[1-(1-phenyl-1H-pyrazol-4-yl)ethyl]piperidin-4-yl}nicotinamide] was run?
Answer: Its IC50 is 1.99 nM.

From patent publication US7902373B2 (Pfizer Inc, priority 2006, dated 2011)
